Literature values in patent publication US11884694B2, “Non-caloric sweeteners and methods for synthesizing” (Conagen Inc., priority 2014, dated 2024).

conditions: sweetness compared with sucrose

SMILES	times sweeter than sucrose
C=C1C[C@@]23CC[C@H]4[C@@](C)(CCC[C@@]4(C)C(=O)O[C@@H]4O[C@H](CO)[C@@H](O)[C@H](O)[C@H]4O)[C@@H]2CC[C@]1(O[C@@H]1O[C@H](CO)[C@@H](O)[C@H](O)[C@H]1O[C@@H]1O[C@H](CO)[C@@H](O)[C@H](O)[C@H]1O)C3 [stevioside, Stevioside]	100-150 times
C=C1C[C@@]23CC[C@H]4[C@@](C)(CCC[C@@]4(C)C(=O)O[C@@H]4O[C@H](CO)[C@@H](O)[C@H](O)[C@H]4O)[C@@H]2CC[C@]1(O[C@@H]1O[C@H](CO)[C@@H](O)[C@H](O)[C@H]1O[C@@H]1O[C@@H](C)[C@H](O)[C@@H](O)[C@H]1O)C3 [Dulcoside A]	about 30 times
C=C1C[C@@]23CC[C@H]4[C@@](C)(CCC[C@@]4(C)C(=O)O[C@@H]4O[C@H](CO)[C@@H](O)[C@H](O)[C@H]4O)[C@@H]2CC[C@]1(O[C@@H]1O[C@H](CO)[C@@H](O)[C@H](O[C@@H]2O[C@H](CO)[C@@H](O)[C@H](O)[C@H]2O)[C@H]1O[C@@H]1O[C@@H](C)[C@H](O)[C@@H](O)[C@H]1O)C3 [Rebaudioside C]	40-60 times
